Laboratory results reported in PMC6669558, “Bioactive Compounds Isolated from Marine Bacterium Vibrio neocaledonicus and Their Enzyme Inhibitory Activities” (Marine Drugs, 2019).
Several values for one entry are separate records, joined by “and”; a condition that tells them apart may be missing. Equal values may be shown once. Marks after values point to notes of the source that are not given here.

What was measured:
[1] = molecular target: T1, Acetylcholinesterase from Electrophorus electricus (Electrophorus electricus, UniProt O42275); test: Acetylcholinesterase inhibition assay (Ellman, ATCI substrate); assay type: biochemical
T1 construct: purchased Sigma Aldrich (Shanghai, China)
T1 sequence (O42275 24-633): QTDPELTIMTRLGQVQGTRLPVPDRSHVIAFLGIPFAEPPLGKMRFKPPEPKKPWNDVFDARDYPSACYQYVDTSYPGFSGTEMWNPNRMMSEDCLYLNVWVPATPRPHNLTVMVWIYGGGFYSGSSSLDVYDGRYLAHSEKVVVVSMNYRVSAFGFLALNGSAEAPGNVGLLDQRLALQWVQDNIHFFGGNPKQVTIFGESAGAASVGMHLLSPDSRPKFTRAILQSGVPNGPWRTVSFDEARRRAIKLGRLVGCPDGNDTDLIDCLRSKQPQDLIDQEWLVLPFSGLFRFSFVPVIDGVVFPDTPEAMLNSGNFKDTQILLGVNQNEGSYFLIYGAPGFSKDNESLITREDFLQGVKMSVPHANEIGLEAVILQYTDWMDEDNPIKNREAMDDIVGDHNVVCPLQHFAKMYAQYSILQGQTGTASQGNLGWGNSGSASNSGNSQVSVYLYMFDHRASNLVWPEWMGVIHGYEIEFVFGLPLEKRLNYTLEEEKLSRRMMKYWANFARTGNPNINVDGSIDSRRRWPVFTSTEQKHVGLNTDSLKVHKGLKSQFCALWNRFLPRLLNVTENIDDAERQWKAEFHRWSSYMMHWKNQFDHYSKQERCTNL
Description: (§1) Acetylcholinesterase from Electrophorus electricus, alphaglucosidase from Saccharomyces cerevisiae, and xanthine oxidase from bovine milk were obtained from Sigma Aldrich (Shanghai, China). The other reagents used in the bioassays were purchased either from Solarbio or Sigma Aldrich. Analytical reagent grade organic solvents for extraction were purchased from XL Xilong Scientific Chemical. Silica gel plates (Silica gel 60 F254 0.2 mm layer thickness) were purchased from Merck (KGaA, Darmstadt, Germany). A spectrometer (Thermo Scientific Multiskan GO, Vantaa, Finland) was used for all measurements of AChE, AG and XO inhibitory activities. The venom was extracted and collected manually from the adult specimens of B. asper snakes from Colombia (South America) that were held captive in the Serpentarium at University of Antioquia. The venom was centrifuged, and the supernatant was lyophilized and frozen at −70 °C until its use.
AChE inhibition was determined according to the method of Ellman with ATCI as substrate. […] The control contained all components except the tested extract. The inhibitory rate was calculated as the formula: %I = [1 − (ODs−OD sample sb)/ODn-ODnb] × 100%; where: ODn is the absorbance value of the sample system in which sample is substituted by PBS, ODnb is the absorbance value of ODn in which no AChE was added, ODsb is the absorbance of ODs in which no AchE was added.

[2] = molecular target: T2, alphaglucosidase from Saccharomyces cerevisiae (Saccharomyces cerevisiae, UniProt P53341); test: Alphaglucosidase inhibition assay (pNPG); assay type: biochemical; conditions: for inhibitory activity for the enzyme AG (in words): at any of the tested doses (3.125-50 µg/mL)
T2 construct: purchased Sigma Aldrich (Shanghai, China)
T2 sequence (P53341 whole entry): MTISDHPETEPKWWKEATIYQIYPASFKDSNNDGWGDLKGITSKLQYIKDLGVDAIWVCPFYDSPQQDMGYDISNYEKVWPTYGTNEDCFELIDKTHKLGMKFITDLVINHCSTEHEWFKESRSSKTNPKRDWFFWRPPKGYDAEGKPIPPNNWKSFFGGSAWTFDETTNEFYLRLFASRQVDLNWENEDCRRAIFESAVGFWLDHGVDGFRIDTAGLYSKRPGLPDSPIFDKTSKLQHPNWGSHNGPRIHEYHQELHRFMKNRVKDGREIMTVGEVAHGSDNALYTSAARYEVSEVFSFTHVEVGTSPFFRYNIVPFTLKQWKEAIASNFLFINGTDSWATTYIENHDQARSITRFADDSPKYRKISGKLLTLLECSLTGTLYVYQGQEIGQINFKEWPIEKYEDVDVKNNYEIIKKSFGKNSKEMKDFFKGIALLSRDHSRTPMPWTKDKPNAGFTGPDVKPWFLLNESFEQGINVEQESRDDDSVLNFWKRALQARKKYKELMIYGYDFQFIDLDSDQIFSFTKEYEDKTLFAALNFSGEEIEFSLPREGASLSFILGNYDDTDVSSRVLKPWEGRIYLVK
Description: as §1
The AG inhibition activity was evaluated by measuring the release of p-nitrophenol from p nitrophenyl-α-D-glucopyranoside (pNPG) following the protocol proposed by Pistia-Brueggemann, with modifications. […] The control (C-) contained all the reagents but the sample was substituted by PBS. […] The inhibitory rate was calculated as the formula: %I = [1 − (ODs − OD sample sb)/ODn-ODnb] × 100%; where: ODn is the absorbance value of the sample system in which sample is substituted by PBS, ODnb is the absorbance value of ODn in which no AG was added, ODsb is the absorbance of ODs in which no AG was added.

[3] = molecular target: T3, xanthine oxidase from bovine milk (Bos taurus, UniProt P80457); test: Xanthine oxidase inhibition assay; assay type: biochemical
T3 construct: purchased Sigma Aldrich (Shanghai, China); host or cells: bovine milk
T3 sequence (P80457 whole entry): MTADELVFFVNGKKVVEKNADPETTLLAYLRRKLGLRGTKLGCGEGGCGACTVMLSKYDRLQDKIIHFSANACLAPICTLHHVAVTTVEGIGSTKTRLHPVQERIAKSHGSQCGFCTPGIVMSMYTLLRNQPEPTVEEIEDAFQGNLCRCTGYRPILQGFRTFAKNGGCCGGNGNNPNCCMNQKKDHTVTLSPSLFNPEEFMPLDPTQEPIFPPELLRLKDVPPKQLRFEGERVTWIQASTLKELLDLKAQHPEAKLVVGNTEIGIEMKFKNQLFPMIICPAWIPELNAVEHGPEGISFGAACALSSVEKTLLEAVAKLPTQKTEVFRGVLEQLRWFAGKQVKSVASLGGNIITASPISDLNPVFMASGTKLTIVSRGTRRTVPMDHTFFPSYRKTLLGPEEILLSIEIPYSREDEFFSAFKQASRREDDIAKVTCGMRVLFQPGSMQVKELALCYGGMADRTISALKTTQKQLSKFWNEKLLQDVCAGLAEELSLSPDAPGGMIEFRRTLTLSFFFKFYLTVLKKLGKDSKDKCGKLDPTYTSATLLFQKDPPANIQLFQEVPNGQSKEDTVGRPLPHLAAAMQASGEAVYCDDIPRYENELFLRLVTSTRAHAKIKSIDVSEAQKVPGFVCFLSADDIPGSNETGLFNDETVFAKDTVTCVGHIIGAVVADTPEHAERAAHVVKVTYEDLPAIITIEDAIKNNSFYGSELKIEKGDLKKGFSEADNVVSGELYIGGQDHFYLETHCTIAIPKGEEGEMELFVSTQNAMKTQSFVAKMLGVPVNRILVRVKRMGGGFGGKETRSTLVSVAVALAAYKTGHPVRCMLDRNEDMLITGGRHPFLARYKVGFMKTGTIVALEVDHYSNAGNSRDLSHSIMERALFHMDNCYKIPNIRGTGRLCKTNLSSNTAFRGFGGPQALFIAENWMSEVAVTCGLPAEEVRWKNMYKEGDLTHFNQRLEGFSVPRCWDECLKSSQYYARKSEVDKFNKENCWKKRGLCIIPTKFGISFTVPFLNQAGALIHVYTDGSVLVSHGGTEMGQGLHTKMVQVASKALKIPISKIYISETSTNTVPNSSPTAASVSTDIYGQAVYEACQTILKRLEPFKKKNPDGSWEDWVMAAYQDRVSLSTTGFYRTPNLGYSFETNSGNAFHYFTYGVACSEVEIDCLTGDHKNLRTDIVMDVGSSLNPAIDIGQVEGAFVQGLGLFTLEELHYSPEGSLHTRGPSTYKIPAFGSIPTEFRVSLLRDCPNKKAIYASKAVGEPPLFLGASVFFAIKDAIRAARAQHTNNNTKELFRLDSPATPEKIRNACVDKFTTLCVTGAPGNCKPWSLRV
Description: as §1
The assay was based on the developed method of Valentao [56] and modified for application in microplates by Lopez-Cruz. All test samples were dissolved in a 50 mM phosphate buffer to simulate the environment in which the reaction occurs in the body. […] The control contained all components except the sample. The inhibitory rate was calculated as the formula: %I = [1 − (ODs − OD sample sb)/ODn-ODnb] × 100%; where: ODn is the absorbance value of the sample system in which sample is substituted by PBS, ODnb is the absorbance value of ODn in which no XO was added, ODsb is the absorbance of ODs in which no XO was added.

B. asper venom [4] = test: Inhibition of proteolytic activity of venom on azocasein; assay type: biochemical, Bothrops asper; conditions: 3 µg venom per well
Description: as §1
The proteolytic activity was measured on azocasein (Sigma Aldrich, St. Lous, MO, USA) according to Wang with some modifications. […] The supernatant (100 μL) was mixed with an equal volume of 0.5 M NaOH, and the absorbance was measured at 450 nm. Results are shown as percentage of activity (absorbance at 450 nm). […]

[5] = system: Metalloproteinase (Batx-I); test: Inhibition of proteolytic activity of isolated metalloproteinase on azocasein; assay type: biochemical, Bothrops atrox; conditions: 3 µg toxin per well
Protocol: (§2) Batx-I was isolated from Bothrops atrox according to the protocol of Patiño. Purification was done by ion-exchange chromatography (CM Sephadex C25) and the toxin purity was tested by RP-HPLC and SDS PAGE. PLA2 was isolated from Crotalus durissus cumanensis according to the protocol of Pereañez. PLA2 was purified by RP-HPLC on C-18 column eluted at 1.0 mL/min with a gradient from 0% to 100% acetonitrile in 0.1% trifluoroacetic acid (v/v). Absorbance was monitored at 215 nm. Batx-I and Cdcum6 were lyophilized and stored at −20 °C until their use.
The proteolytic activity was measured on azocasein (Sigma Aldrich, St. Lous, MO, USA) according to Wang with some modifications. Briefly, 3 µg of B. asper venom or Batx-I were dissolved in 5 μL of 25 mM Tris (0.15 M NaCl, 5 mM CaCl2), pH 7.4, and were mixed with different doses of indole in order to obtain 1:20, 1:10 and 1:5 w/w ratios, respectively. Mixes were pre-incubated for 30 min at 37 °C. Later, these solutions were incubated with 10 mg/mL of azocasein diluted in the same buffer. After an incubation of 90 min at 37 °C, the reaction was stopped by the addition of 200 μL of trichloroacetic acid. The samples were then centrifuged at 3000 rpm for 5 min. The supernatant (100 μL) was mixed with an equal volume of 0.5 M NaOH, and the absorbance was measured at 450 nm. Results are shown as percentage of activity (absorbance at 450 nm). […]

B. asper venom [6] = test: Inhibition of coagulant activity of venom (plasma clotting time); assay type: biochemical, Bothrops asper
Protocol: The method described by Theakston and Reid was followed, with small modifications. Briefly, 1.0 µg of B. asper dissolved in 25 µL PBS were mixed with 75 µL of different concentrations of indole, and pre-incubated for 30 min at 37 °C. After, 100 µL of mixtures were added to 0.2 mL of plasma, and the time required for plasma coagulation was determined.

[7] = system: Phospholipase A2 (Cdcum6); test: Inhibition of PLA2 activity with 4N3OBA substrate; assay type: biochemical, Crotalus durissus cumanensis
Protocol: as §2
The inhibitory effect of indole on the PLA2 of snake venom was assessed by two methods; the first of them, using monodispersed substrate 4N3OBA (manufactured by BIOMOL, Hamburg Germany) according to the method described by Holzer and Mackessy and adapted for a 96-well ELISA plate. […] The inhibitory effect of indole on PLA2 activity was determined through pre-incubation of the enzyme with each concentration of the compound for 30 min at 37 °C. After the incubation period, the sample was added to the assay and the reaction was monitored at 425 nm for 40 min at 37 °C. The quantity of chromophore released (4-nitro-3-hydroxy benzoic acid) was proportional to the enzymatic activity. […]

B. asper venom [8] = test: Inhibition of indirect hemolytic activity (agarose-erythrocyte-egg yolk gels); assay type: biochemical, Bothrops asper; conditions: at tested doses
Protocol: The second method to evaluate the inhibitory effect of indole on PLA2, was determining the inhibition of the indirect hemolytic activity. This was evaluated in agarose-erythrocyte-egg yolk gels according to Gutierrez. It used a minimum indirect hemolytic dose (MIHD) of B. asper venom of 2.2 μg, defined as the amount of venom that induced a 20 mm diameter hemolytic halo. Venom and different doses of indole were preincubated for 30 min at 37 °C and the inhibitory potential was measured after 20 h of plate incubation at 37 °C. This experiment was done in triplicate.

[9] = dose 50 µg/mL, listed as indole

| Structure (SMILES) | AChEI% ([1]; dose 3.125 µg/mL) | AChEI% ([1]; dose 6.25 µg/mL) | AChEI% ([1]; dose 25 µg/mL) | AChEI% ([1]; dose 50 µg/mL) | inhibitory activity for the enzyme AG (in words) [2] | AGI% ([2]; dose 3.125 µg/mL) | AGI% ([2]; dose 6.25 µg/mL) | AGI% ([2]; dose 25 µg/mL) | AGI% ([2]; dose 50 µg/mL) | IC50 [3] | XOI% ([3]; dose 3.125 µg/mL) | XOI% ([3]; dose 6.25 µg/mL) | XOI% ([3]; dose 25 µg/mL) | XOI% ([3]; dose 50 µg/mL) | IC50 [1] | other results |
| --- | --- | --- | --- | --- | --- | --- | --- | --- | --- | --- | --- | --- | --- | --- | --- | --- |
| O=Cc1c[nH]c2ccccc12 [1H-indole-3-carboxaldehyde] | 0% | 0% | 0% | 0% | no inhibitory activity | 0% | 0% | 0% | 0% | 13.4 ± 0.39 µM | 61.14% and 61.14 ± 0.14 % | 67.69% and 67.69 ± 0.34 % | 86.49% and 86.49 ± 0.89 % | 100% and 100 *** % | – | – |
| O=Cc1ccc(O)cc1 [4-hydroxybenzaldehyde] | 0% | 4.21 ± 0.01% | 14.26 ± 0.011% | 25.7% and 25.7 ± 0.56% | no inhibitory activity | 0% | 0% | 0% | 0% | 506 ± 16 µM | 17.39 ± 0.49% | 25.27 ± 0.19% | 31.67 ± 0.52% | 50.75% and 50.75 ± 0.50% | 6890 ± 118 µM | – |
| c1ccc2[nH]ccc2c1 [Indole, indole] | 0% | 9.42 ± 0.07% | 37.54 ± 1.26% | 51.3 ± 1.67 % | – | 51.43 ± 1.06 % | 81.49 ± 1.17 % | 94.4 ± 1.01 % | 100 *** % | 843 ± 16.7 µM | 15.01 ± 0.31% | 17.77 ± 0.52% | 25.17 ± 0.65% | 44.30 ± 1.14% | 335 ± 13.1 µM | AChEI% [1, 9]: 51.3%; AGI% ([2]; dose 3.125 µg/mL, listed as indole): 51.43%; AGI% ([2]; dose 6.25 µg/mL, listed as indole): 81.49%; AGI% ([2]; dose 25 µg/mL, listed as indole): 94.4%; IC50 ([2]; read-out: AG (IC50 µM)): 18.7 ± 1.1 µM; XOI% [3, 9]: 44.3%; proteolytic activity inhibition of B. asper venom (in words) (B. asper venom [4]; venom:compound ratio 1:10): weak inhibition without significance; proteolytic activity inhibition of B. asper venom (B. asper venom [4]; venom:compound ratio 1:20 w/w): 77.9% ± 5.5; inhibition of proteolytic activity of metalloprotease ([5]; toxin:compound ratio 1:5, not significant): 4.31 ± 1.9; inhibition of proteolytic activity of metalloprotease ([5]; toxin:compound ratio 1:10): 13.54 ± 2.5; coagulant activity of the compound by itself (in words) (B. asper venom [6]; compound alone, after half an hour of incubation): did not generate coagulant activity; inhibition of the coagulating effect in vitro (in words) (B. asper venom [6]; induced by 1.0 µg of venom): significant in vitro inhibition; maximum delay time for clotting onset (clotting time) (B. asper venom [6]; venom:compound ratio 1:20 w/w, 1.0 µg venom, venom alone 21.6 ± 0.8 s): 99 ± 4.0 s; inhibition of PLA2 activity (given as proteolytic activity inhibition) ([7]; toxin:compound ratio 1:10): 10.0%; inhibition of PLA2 activity (given as proteolytic activity inhibition) ([7]; toxin:compound ratio 1:20): 15.20%; inhibition of the indirect hemolytic activity of the complete venom (in words) (B. asper venom [8]): did not show inhibition |
